Source: PubChem BioAssay AID192 (DTP/NCI, 2004)
Where “and” joins values, the source holds several entries; their conditions need not be identical. Identical values can stand only once. Toxic doses and inconclusive results are not listed. Rule for the calls: active = survival T/C of 150% or more; inactive = T/C below 125% in these data.

Tested on: BDF1 mice, B16 melanoma ip, median survival T/C
Test: NCI In Vivo Anticancer Drug Screen. Data for tumor model B16 Melanoma (intraperitoneal) in B6D2F1 (BDF1) mice
Conditions: endpoint: median survival time, higher = longer survival
In short: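 Compounds were tested in mice carrying transplantable tumors. Survival or tumor size was recorded, and each value is the treated-group measurement (T) divided by that of the vehicle-treated control group (C).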

[1] = dose: 100.0 mg/kg/injection, schedule: Q04DX003 (ip), vehicle: saline with Tween-80
[2] = dose: 200.0 mg/kg/injection, schedule: Q04DX003 (ip), vehicle: saline with Tween-80
[3] = dose: 400.0 mg/kg/injection, schedule: Q04DX003 (ip), vehicle: saline with Tween-80
[4] = dose: 100.0 mg/kg/injection, schedule: Q01DX009 (ip), vehicle: saline with Tween-80
[5] = dose: 400.0 mg/kg/injection, schedule: Q01DX009 (ip), vehicle: saline
[6] = dose: 200.0 mg/kg/injection, schedule: Q01DX009 (ip), vehicle: Klucel (hydroxypropylcellulose) (HPC)
[7] = dose: 400.0 mg/kg/injection, schedule: Q01DX009 (ip), vehicle: Klucel (hydroxypropylcellulose) (HPC)
[8] = dose: 100.0 mg/kg/injection, schedule: Q01DX009 (ip), vehicle: Klucel (hydroxypropylcellulose) (HPC)
[9] = dose: 12.5 mg/kg/injection, schedule: Q01DX009 (ip), vehicle: saline with Tween-80
[10] = dose: 25.0 mg/kg/injection, schedule: Q01DX009 (ip), vehicle: saline with Tween-80
[11] = dose: 25.0 mg/kg/injection, schedule: Q04DX003 (ip), vehicle: saline with Tween-80
[12] = dose: 50.0 mg/kg/injection, schedule: Q01DX009 (ip), vehicle: saline with Tween-80
[13] = dose: 50.0 mg/kg/injection, schedule: Q04DX003 (ip), vehicle: saline with Tween-80
[14] = dose: 200.0 mg/kg/injection, schedule: Q01DX009 (ip), vehicle: saline with Tween-80

Measured: T/C

CC[CH2][Sn]([Cl])([Cl])[CH2]CC.Oc1ccccc1C=NCCN=Cc1ccccc1O
inactive: dose: 0.6 mg/kg/injection, schedule: Q01DX009 (ip), vehicle: gum acacia 95 % of control | dose: 0.61 mg/kg/injection, schedule: Q01DX009 (ip), vehicle: gum acacia 100 % of control | dose: 1.25 mg/kg/injection, schedule: Q01DX009 (ip), vehicle: gum acacia 92 % of control and 100 % of control | dose: 2.5 mg/kg/injection, schedule: Q01DX009 (ip), vehicle: gum acacia 92 % of control and 94 % of control | dose: 5.0 mg/kg/injection, schedule: Q01DX009 (ip), vehicle: gum acacia 90 % of control and 97 % of control

CCCC(C(=O)O)C(CCC)C(=O)O (stereo unspecified)
inactive: [1] 97 % of control | [2] 88 % of control | [3] 88 % of control

CCSC(=O)N1c2ccc(OC)cc2C=CC1C#N (stereo unspecified)
inactive: [4] 121 % of control

O=Cc1ccc(C(=O)O)cc1
inactive: [1] 93 % of control | [2] 93 % of control | [3] 86 % of control

OCC1OC(Oc2ccc(O)cc2)C(O)C(O)C1O (stereo unspecified)
inactive: dose: 50.0 mg/kg/injection, schedule: Q01DX009 (ip), vehicle: saline 100 % of control | dose: 100.0 mg/kg/injection, schedule: Q01DX009 (ip), vehicle: saline 99 % of control | dose: 200.0 mg/kg/injection, schedule: Q01DX009 (ip), vehicle: saline 96 % of control | [5] 101 % of control

CCCCCCCCCCCC[N+]1(CCCCCCCCCCCC)CCCC(C)C1 (stereo unspecified)
inactive: dose: 0.09 mg/kg/injection, schedule: Q01DX009 (ip), vehicle: Klucel (hydroxypropylcellulose) (HPC) 95 % of control | dose: 0.18 mg/kg/injection, schedule: Q01DX009 (ip), vehicle: Klucel (hydroxypropylcellulose) (HPC) 97 % of control | dose: 0.37 mg/kg/injection, schedule: Q01DX009 (ip), vehicle: Klucel (hydroxypropylcellulose) (HPC) 93 % of control and 95 % of control

CCCCC[C@H](O)/C=C/[C@@H]1[C@@H](C/C=C\CCCC(=O)O)[C@@H](O)C[C@H]1O
inactive: dose: 0.25 mg/kg/injection, schedule: Q#A X020 (ip), vehicle: saline with Tween-80 109 % of control | dose: 1.0 mg/kg/injection, schedule: Q#A X020 (ip), vehicle: saline with Tween-80 100 % of control | dose: 2.0 mg/kg/injection, schedule: Q#A X020 (ip), vehicle: saline with Tween-80 110 % of control | dose: 10.0 mg/kg/injection, schedule: Q04DX002 (ip), vehicle: saline 113 % of control | dose: 20.0 mg/kg/injection, schedule: Q04DX002 (ip), vehicle: saline 95 % of control | dose: 40.0 mg/kg/injection, schedule: Q04DX002 (ip), vehicle: saline 108 % of control | dose: 80.0 mg/kg/injection, schedule: Q04DX002 (ip), vehicle: saline 108 % of control | dose: 160.0 mg/kg/injection, schedule: Q04DX002 (ip), vehicle: saline 97 % of control | dose: 320.0 mg/kg/injection, schedule: Q04DX002 (ip), vehicle: saline 97 % of control

C[C@@H]1O[C@@H](O[C@H]2CC[C@]3(C=O)[C@H]4CC[C@]5(C)[C@@H](c6ccc(=O)oc6)CC[C@]5(O)[C@@H]4CC[C@]3(O)C2)[C@H](O)[C@H](O)[C@H]1O[C@@H]1O[C@H](CO)[C@@H](O)[C@H](O)[C@H]1O
inactive: dose: 0.63 mg/kg/injection, schedule: Q01DX009 (ip), vehicle: saline 102 % of control | dose: 1.25 mg/kg/injection, schedule: Q01DX009 (ip), vehicle: saline 92 % of control | dose: 2.5 mg/kg/injection, schedule: Q01DX009 (ip), vehicle: saline 90 % of control

C1CCC(OB2OB(OC3CCCCC3)OB(OC3CCCCC3)O2)CC1
inactive: dose: 50.0 mg/kg/injection, schedule: Q01DX009 (ip), vehicle: other 103 % of control | dose: 100.0 mg/kg/injection, schedule: Q01DX009 (ip), vehicle: other 93 % of control | dose: 200.0 mg/kg/injection, schedule: Q01DX009 (ip), vehicle: other 102 % of control

Clc1ccc(/C=C2\c3cc(Cl)ccc3-c3c(Cl)cc(Cl)cc32)cc1
inactive: dose: 6.25 mg/kg/injection, schedule: Q01DX009 (ip), vehicle: saline with Tween-80 90 % of control

CCCCC(CC)COC(=O)/C=C/C(=O)OCC(CC)CCCC (stereo unspecified)
inactive: [6] 90 % of control | [7] 87 % of control

Cc1c2ccccc2c(C)c2c1ccc1ccccc12
inactive: dose: 2.0 mg/kg/injection, schedule: Q01DX009 (ip), vehicle: saline with Tween-80 100 % of control | dose: 4.0 mg/kg/injection, schedule: Q01DX009 (ip), vehicle: saline with Tween-80 108 % of control | dose: 16.0 mg/kg/injection, schedule: Q01DX009 (ip), vehicle: saline with Tween-80 108 % of control

C[C@H](N)C(=O)N[C@@H]1[C@H]2C(=C(O)C[C@@H](O)[C@@H]2O)C(=O)O[C@@H]1C
inactive: dose: 150.0 mg/kg/injection, schedule: Q01DX009 (ip), vehicle: saline 100 % of control | dose: 300.0 mg/kg/injection, schedule: Q01DX009 (ip), vehicle: saline 102 % of control | dose: 600.0 mg/kg/injection, schedule: Q01DX009 (ip), vehicle: saline 106 % of control | dose: 1200.0 mg/kg/injection, schedule: Q01DX009 (ip), vehicle: saline 116 % of control

NC(=O)c1ccccc1C(N)=O
inactive: [8] 100 % of control | [6] 106 % of control | [7] 93 % of control

Cc1ccc(C)c(NC(=O)c2ccccc2Cl)c1
inactive: [8] 118 % of control | [6] 93 % of control | [7] 109 % of control

CCN1CSC(=S)N(CC)C1
inactive: [9] 104 % of control | [10] 102 % of control | [11] 89 % of control | [12] 97 % of control | [13] 100 % of control | [4] 100 % of control | [1] 92 % of control

CC1OC(OCc2ccc(-c3ccccc3)cc2)CC(N)C1O (stereo unspecified)
inactive: dose: 1.56 mg/kg/injection, schedule: Q01DX009 (ip), vehicle: water 105 % of control | dose: 3.13 mg/kg/injection, schedule: Q01DX009 (ip), vehicle: water 95 % of control | dose: 6.25 mg/kg/injection, schedule: Q01DX009 (ip), vehicle: water 99 % of control | dose: 12.5 mg/kg/injection, schedule: Q01DX009 (ip), vehicle: water 104 % of control | dose: 25.0 mg/kg/injection, schedule: Q01DX009 (ip), vehicle: water 87 % of control

C(=NC1CCCCC1)c1c[nH]c2ccccc12
inactive: [12] 100 % of control | [4] 97 % of control | [14] 97 % of control

CC(=O)C(N=Nc1ccccc1)C(C)=O
inactive: dose: 25.0 mg/kg/injection, schedule: Q01DX009 (ip), vehicle: Klucel (hydroxypropylcellulose) (HPC) 100 % of control | dose: 50.0 mg/kg/injection, schedule: Q01DX009 (ip), vehicle: Klucel (hydroxypropylcellulose) (HPC) 113 % of control | [8] 113 % of control

CC(C)(O)C(C)(O)c1ccc(Cl)cc1 (stereo unspecified)
inactive: [9] 88 % of control | [10] 91 % of control | [12] 103 % of control | [4] 104 % of control | [14] 92 % of control

O=C(O)O.O=C(O)O.O=C(O)O.[Co]
inactive: [11] 88 % of control | [13] 91 % of control

NCCN
inactive: dose: 177.0 mg/kg/injection, schedule: Q01DX009 (ip), vehicle: saline 115 % of control | dose: 266.0 mg/kg/injection, schedule: Q01DX009 (ip), vehicle: saline 96 % of control | [5] 105 % of control

CC1(C)[C@H]2CC[C@@]1(C)C(=O)[C@H]2[N+](=O)[O-]
inactive: [8] 114 % of control | [6] 111 % of control | [7] 108 % of control

O=C1C=CC(=O)C2=C1CCCC2
inactive: dose: 2.9 mg/kg/injection, schedule: Q01DX009 (ip), vehicle: saline with Tween-80 87 % of control | dose: 4.5 mg/kg/injection, schedule: Q01DX009 (ip), vehicle: saline with Tween-80 87 % of control

O=C1C=C(c2ccccc2)C(=O)C=C1c1ccccc1
inactive: dose: 6.0 mg/kg/injection, schedule: Q04DX003 (ip), vehicle: gum acacia 100 % of control | dose: 12.0 mg/kg/injection, schedule: Q04DX003 (ip), vehicle: gum acacia 91 % of control | dose: 25.0 mg/kg/injection, schedule: Q04DX003 (ip), vehicle: gum acacia 92 % of control and 93 % of control
